# Laboratory results as given in patent US20240216401A1, “COMBINATION THERAPY BY USING AKR1C3-ACTIVATED COMPOUND WITH IMMUNE CHECKPOINT INHIBITOR” (OBI Pharma, Inc., priority 2021, published 2024).
# “And” between values parts separate entries of the source, which are not always exact repeats. Identical values can stand only once.
# Key:
# [1] = tested on: Dendritic cells in tumor-infiltrating lymphocytes; assay: Example 2: flow cytometry, percentage of Dendritic cells in TILs; type: in vivo, Mus musculus; settings: individual animals and Mean
# Procedure: (§1) Mice were sacrificed by CO2 euthanasia at the end of the study duration, and the connective tissue around tumor was resected. The tumor samples were then weighed and cut equally into three sections if the tumor weight over 400 mg. The tumor tissue was prepared for the isolation of tumor-infiltrating lymphocytes (TILs). The rest of one section was fixed in 10% formaldehyde and embedded in paraffin; the other was stored at a temperature below −70° C.
# (§2) The tumor samples were dissected into smaller fragments using scalpels and then digested with a cocktail of collagenase, DNase I, and Hyaluronidase (Collagenase #C5138, DNase I #D5025, Hyaluronidase #H6254, SigmaAldrich) for at least 2 hours.
# (§3) Cells were stained with the fluorescently conjugated surface antibodies and incubated for 30 minutes at 4° C., and then resuspended in staining buffer for flow cytometric analysis. Flow cytometry was done using a Navios EX Flow Cytometer (Beckman Coulter). Data were analyzed using the Kaluza Analysis Software (Beckman Coulter).
# [2] = tested on: Calreticulin cells in tumor-infiltrating lymphocytes; assay: Example 2: flow cytometry, percentage of Calreticulin cells in TILs; type: in vivo, Mus musculus; settings: individual mice and group Mean; for CD45^− live cells (CD45^−ViaKrome405^weak) Cell count / Calreticulin cells (CD45^− Calreticulin^+) Cell count / Total CD45^− cells (CD45^−) Cell count: Cell count = Total cell × Total % × 10; for CD45^− live cells (CD45^−ViaKrome405^weak) CTL Gated % / CD45^− live cells (CD45^−ViaKrome405^weak) Total % / Calreticulin cells (CD45^− Calreticulin^+) CTL Gated % / Calreticulin cells (CD45^− Calreticulin^+) Total % / Total CD45^− cells (CD45^−) CD45^+ Gated % / Total CD45^− cells (CD45^−) Total %: TILs from tumor
# Procedure: as §1, §2, §3
# [3] = G2: OBI-3424 (0.3 mg/kg), 0.3 mg/kg, mean
# [4] = G3: OBI-3424 (1 mg/kg), 1 mg/kg
# [5] = G3: OBI-3424 (1 mg/kg), 1 mg/kg, mean
# [6] = G2: OBI-3424 0.3 mg/kg, 0.3 mg/kg
# [7] = G2: OBI-3424 0.3 mg/kg, 0.3 mg/kg, group mean
# [8] = G3: OBI-3424 1 mg/kg, 1 mg/kg, group mean
smiles,measurement,setting,value
"C[C@H](OP(=O)(N1CC1)N1CC1)c1ccc([N+](=O)[O-])c(Oc2cccc(C(=O)N(C)C)c2)c1 [OBI-3424, (S)-1-(3-(3-N,N-dimethylaminocarbonyl)phenoxyl-4-mtrophenyl)-1-ethyl-N,N′-bis(ethylene)phosphoramidate]",CD86^+ DC cells (CD45^+CD11c^+CD86^+) Cell count,[1]; [3],11.65 ×10^5
same,CD86^+ DC cells (CD45^+CD11c^+CD86^+) Total %,[1]; [3],5.68%
same,CD91^+ DC cells (CD45^+CD11c^+CD91^+) Cell count,[1]; [3],0.19 ×10^5
same,CD91^+ DC cells (CD45^+CD11c^+CD91^+) Total %,[1]; [3],0.08%
same,DC cells (CD45^+CD11c^+) CD45+ Gated %,[1]; [3],31.52%
same,DC cells (CD45^+CD11c^+) Cell count,[1]; [3],29.52 ×10^5
same,DC cells (CD45^+CD11c^+) Total %,[1]; [3],12.04%
same,CD86^+ DC cells (CD45^+CD11c^+CD86^+) Cell count,[1]; [4],2.23 ×10^5 and 10.59 ×10^5 and 5.46 ×10^5 and 6.73 ×10^5 and 6.98 ×10^5 and 7.11 ×10^5
same,CD86^+ DC cells (CD45^+CD11c^+CD86^+) Total %,[1]; [4],7.68% and 8.39% and 7.73% and 6.81% and 9.38% and 8.78%
same,CD91^+ DC cells (CD45^+CD11c^+CD91^+) Cell count,[1]; [4],0.04 ×10^5 (2×) and 0.10 ×10^5 and 0.06 ×10^5 (2×) and 0.08 ×10^5
same,CD91^+ DC cells (CD45^+CD11c^+CD91^+) Total %,[1]; [4],0.14% and 0.08% (2×) and 0.09% and 0.06% and 0.07%
same,DC cells (CD45^+CD11c^+) CD45+ Gated %,[1]; [4],23.54% and 31.09% and 41.01% and 19.89% and 35.18% and 28.58%
same,DC cells (CD45^+CD11c^+) Cell count,[1]; [4],4.40 ×10^5 and 23.57 ×10^5 and 13.84 ×10^5 and 12.22 ×10^5 and 16.67 ×10^5 and 14.15 ×10^5
same,DC cells (CD45^+CD11c^+) Total %,[1]; [4],15.16% and 18.68% and 19.60% and 12.37% and 22.41% and 17.47%
same,CD86^+ DC cells (CD45^+CD11c^+CD86^+) Cell count,[1]; [5],6.52 ×10^5
same,CD86^+ DC cells (CD45^+CD11c^+CD86^+) Total %,[1]; [5],8.13%
same,CD91^+ DC cells (CD45^+CD11c^+CD91^+) Cell count,[1]; [5],0.06 ×10^5
same,CD91^+ DC cells (CD45^+CD11c^+CD91^+) Total %,[1]; [5],0.09%
same,DC cells (CD45^+CD11c^+) CD45+ Gated %,[1]; [5],29.88%
same,DC cells (CD45^+CD11c^+) Cell count,[1]; [5],14.14 ×10^5
same,DC cells (CD45^+CD11c^+) Total %,[1]; [5],17.62%
same,CD45^− live cells (CD45^−ViaKrome405^weak) Cell count,[2]; [6],39.37 ×10^5 and 25.28 ×10^5 and 83.81 ×10^5 and 1.35 ×10^5 and 29.90 ×10^5 and 5.87 ×10^5
same,Calreticulin cells (CD45^− Calreticulin^+) Cell count,[2]; [6],5.54 ×10^5 and 1.27 ×10^5 and 10.26 ×10^5 and 0.06 ×10^5 and 1.11 ×10^5 and 0.19 ×10^5
same,Total CD45^− cells (CD45^−) Cell count,[2]; [6],70.58 ×10^5 and 45.89 ×10^5 and 130.41 ×10^5 and 2.18 ×10^5 and 65.25 ×10^5 and 10.35 ×10^5
same,CD45^− live cells (CD45^−ViaKrome405^weak) Cell count,[2]; [7],30.93 ×10^5
same,Calreticulin cells (CD45^− Calreticulin^+) Cell count,[2]; [7],3.07 ×10^5
same,Total CD45^− cells (CD45^−) Cell count,[2]; [7],54.11 ×10^5
same,CD45^− live cells (CD45^−ViaKrome405^weak) CTL Gated %,[2]; [6],55.78% and 55.07% and 64.29% and 61.79% and 45.83% and 56.69%
same,CD45^− live cells (CD45^−ViaKrome405^weak) Total %,[2]; [6],20.24% and 12.36% and 15.52% and 6.30% and 12.13% and 8.10%
same,Calreticulin cells (CD45^− Calreticulin^+) CTL Gated %,[2]; [6],14.09% and 5.02% and 12.21% and 4.51% and 3.69% and 3.21%
same,Calreticulin cells (CD45^− Calreticulin^+) Total %,[2]; [6],2.85% and 0.62% and 1.90% and 0.28% and 0.45% and 0.26%
same,Total CD45^− cells (CD45^−) CD45^+ Gated %,[2]; [6],50.59% and 29.66% and 28.87% and 12.41% and 31.01% and 21.40%
same,Total CD45^− cells (CD45^−) Total %,[2]; [6],36.29% and 22.44% and 24.15% and 10.20% and 26.47% and 14.28%
same,CD45^− live cells (CD45^−ViaKrome405^weak) CTL Gated %,[2]; [7],56.58%
same,CD45^− live cells (CD45^−ViaKrome405^weak) Total %,[2]; [7],12.44%
same,Calreticulin cells (CD45^− Calreticulin^+) CTL Gated %,[2]; [7],7.12%
same,Calreticulin cells (CD45^− Calreticulin^+) Total %,[2]; [7],1.06%
same,Total CD45^− cells (CD45^−) CD45^+ Gated %,[2]; [7],28.99%
same,Total CD45^− cells (CD45^−) Total %,[2]; [7],22.31%
same,CD45^− live cells (CD45^−ViaKrome405^weak) Cell count,"[2]; G3: OBI-3424 1 mg/kg, 1 mg/kg",1.72 ×10^5 and 9.67 ×10^5 and 7.88 ×10^5 and 9.07 ×10^5 and 5.22 ×10^5 and 6.72 ×10^5
same,Calreticulin cells (CD45^− Calreticulin^+) Cell count,"[2]; G3: OBI-3424 1 mg/kg, 1 mg/kg",0.05 ×10^5 and 0.25 ×10^5 (2×) and 0.88 ×10^5 and 0.19 ×10^5 and 0.12 ×10^5
same,Total CD45^− cells (CD45^−) Cell count,"[2]; G3: OBI-3424 1 mg/kg, 1 mg/kg",2.45 ×10^5 and 15.22 ×10^5 and 11.73 ×10^5 and 11.65 ×10^5 and 8.38 ×10^5 and 8.94 ×10^5
same,CD45^− live cells (CD45^−ViaKrome405^weak) Cell count,[2]; [8],6.71 ×10^5
same,Calreticulin cells (CD45^− Calreticulin^+) Cell count,[2]; [8],0.29 ×10^5
same,Total CD45^− cells (CD45^−) Cell count,[2]; [8],9.73 ×10^5
same,CD45^− live cells (CD45^−ViaKrome405^weak) CTL Gated %,"[2]; G3: OBI-3424 1 mg/kg, 1 mg/kg",70.28% and 63.52% and 67.13% and 77.84% and 62.30% and 75.12%
same,CD45^− live cells (CD45^−ViaKrome405^weak) Total %,"[2]; G3: OBI-3424 1 mg/kg, 1 mg/kg",5.94% and 7.66% and 11.16% and 9.18% and 7.02% and 8.30%
same,Calreticulin cells (CD45^− Calreticulin^+) CTL Gated %,"[2]; G3: OBI-3424 1 mg/kg, 1 mg/kg",2.90% and 2.61% and 11.18% and 2.75% and 3.65% and 1.83%
same,Calreticulin cells (CD45^− Calreticulin^+) Total %,"[2]; G3: OBI-3424 1 mg/kg, 1 mg/kg",0.17% and 0.20% and 1.25% and 0.25% and 0.26% and 0.15%
same,Total CD45^− cells (CD45^−) CD45^+ Gated %,"[2]; G3: OBI-3424 1 mg/kg, 1 mg/kg",9.67% and 13.99% and 19.95% and 13.15% and 12.84% and 12.22%
same,Total CD45^− cells (CD45^−) Total %,"[2]; G3: OBI-3424 1 mg/kg, 1 mg/kg",8.45% and 12.06% and 16.62% and 11.79% and 11.27% and 11.04%
same,CD45^− live cells (CD45^−ViaKrome405^weak) CTL Gated %,[2]; [8],69.37%
same,CD45^− live cells (CD45^−ViaKrome405^weak) Total %,[2]; [8],8.21%
same,Calreticulin cells (CD45^− Calreticulin^+) CTL Gated %,[2]; [8],4.15%
same,Calreticulin cells (CD45^− Calreticulin^+) Total %,[2]; [8],0.38%
same,Total CD45^− cells (CD45^−) CD45^+ Gated %,[2]; [8],13.64%
same,Total CD45^− cells (CD45^−) Total %,[2]; [8],11.87%
